What was measured:
[1] = system: WT retinas; details: mouse, in vivo
Description: A) Experimental paradigm for analyzing STAT3 phosphorylation by western blot in MG. P11 retinas were dissociated and grown in a growth media containing mEGF for 7 DIV. MG were passaged to eliminate residual neurons and cultured in a media containing doxycycline to induce Ascl1 expression for 6 DIV. […] B) Representative images from confluent cultures of non-treated, DOX-treated, and DOX+STATi-treated MG just before harvesting. C) Representative western blot for pSTAT3 (Y705), STAT3, and Beta-actin on non-treated, Dox-treated, and Dox+STATi-treated MG cultures. […] Scale bars for B and E are 25 and 40 μm, respectively.
Immunohistochemistry (IHC): Upon euthanasia of adult mice, eyes were removed and comeas dissected away. Globes were then fixed for 1 hour in 4% PFA in PBS followed by an overnight incubation in 30% sucrose in PBS at 4° C. Fixed eyes were then frozen in O.T.C. (Sakura Finetek) at −80° C. until sectioned. Frozen eyes were sectioned on a cryostat (Leica) at 16-18 μm thick and were stored at −20° C. until staining. All washes were 3 times 20 minutes in PBS on a rotating plate at room temperature. Slides were washed then blocked in 10% normal horse serum, 0.5% Triton X-100 in PBS for a minimum of 1 hour prior to primary. All primary antibodies were diluted in blocking solution and applied to tissue for a minimum of 3 hours. […]

[2] = system: Ascl1 binding at STAT3 bound regions; assay: Ascl1 ChIP-seq on control and STATi-treated cultured MG; format: cell-based, mouse; details: cultured P12 MG, doxycycline-induced Ascl1
Protocol: To directly assess the effect that STAT pathway activation has on Ascl1 binding at Id genes and more broadly across the genome during MG reprogramming, we performed an Ascl1 ChIP-seq on control and STATi-treated MG. Frozen stocks of MG from P12 germline-rtTA:tetO429 Ascl1 mice were thawed and cultured to confluency for 2 days in high FBS growth media. Cells were then given a low FBS media with STATi or vehicle for the remaining 4 DIV. At 3 DIV (1 day after STATi), doxycyline was administered to induce Ascl1 overexpression in the MG. Cells were then collected and fixed for ChIP-seq after 6 DIV. FASTQ files were aligned to the mm10 genome using Bowtie2 and peaks were called using MACS2. […] Both datasets contained the canonical Ascl1 E-box as the top scoring motif, as determined by HOMER, with strong central enrichment of peaks from both datasets around the Ascl1 motif. […]
Ascl1 Chromatin Immunoprecipitation-Sequencing (ChIP-Seq): P0 retinas or cultured, post-natal day 12, Müller glia (+/−Ascl1 overexpression, rtTA germline:tetO-Ascl1-ires-GFP mice ±doxycycline) were digested with papain/DNase to single cells and fixed with 0.75% formaldehyde for 10 minutes at room temperature. […] Libraries were prepared with standard Illumina adaptors and sequenced to an approximate depth of 36 million reads each. Sequence reads (36 bp) were mapped to the mouse mm9 genome using bwa (v 0.7.12-r1039). […]

[3] = system: Ascl1-reporter Müller glia; assay: miRNA mimic/antagomiR transfection of P11 MG cultures from Ascl1-CreER:tdTomato reporter mice; format: cell-based, mouse
Description: To test whether miRNAs regulate the neurogenic competence of MG, we used primary dissociated cell cultures, since this method has proven effective for identifying reprogramming factors that are effective both in vitro and in vivo (Jorstad et al., 2017; Pollak et al., 2013; Ueki et al., 2015). We hypothesized that miRNAs highly expressed in RPCs may be important in establishing and maintaining the RPC gene expression pattern. One prediction of this hypothesis is that over-expression of the RPC-miRNAs in MG would cause the MG to adopt a progenitor-like gene expression profile. […]
MG cultures from P11 Ascl1-CreER:tdTomatoflSTOP/flSTOP mice were transfected with either a cocktail of all four RPC-miR mimics, or each miRNA mimic individually (FIG. 10B). We added 4-Hydroxy-tamoxifen to the cultures to activate the cre-recombinase and monitored the cells for tdTomato expression. […]
Müller glia were dissociated (see above) from postnatal day (P) 11/12 mice and adult (one month, 2, and 4 months) and grown in Neurobasal medium supplemented with N-2, tetracycline-free 10% fetal bovine serum (FBS, Clontech), and epidermal growth factor (EGF, R&D Systems, 100 ng/mL) as described previously (Ueki et al., 2012). […] EdU was added either with the onset of culturing to track cell proliferation of MG lineage or after transfection to quantify cell proliferation due to the treatment. […]

Row | Molecule | toxicity (TUNEL staining) [1] | Ascl1 binding (ChIP-seq peaks) at STAT3 bound regions near Id1 and Id3 [2] | Ascl1:tdTomato+ cells (Ascl1-reporter expression) ([3]; P11 MG cultures, days post-transfection vs control) | conversion of MG into a neuronal/RPC phenotype ([3]; young (P11) MG in vitro, summary statement)
1 | CN(CC(=O)N(Cc1ccc(C2CCCCC2)cc1)c1ccc(C(=O)O)cc1)S(=O)(=O)c1c(F)c(F)c(F)c(F)c1F [SH-4-54] | not found to be toxic | Decreased Ascl1 binding |  | 
2 | miR-25: miR-25 mimic, CAUUGCACUUGUCUCGGUCUGA (SEQ ID NO: 22); double-stranded, preprocessed miRNA (double-stranded mimic, other strand not given here) |  |  | significant increase | approximately 40%
